Reference: article PMC9604483, “Crystal Structure of CYP3A4 Complexed with Fluorol Identifies the Substrate Access Channel as a High-Affinity Ligand Binding Site” (International Journal of Molecular Sciences, 2022)
Read-outs that look alike come from different tables or passages of the source.

What was measured:
CYP3A4 = CYP3A4 (Homo sapiens, UniProt P08684); assay: Progesterone binding to CYP3A4 (authors' estimate of Kd)
Procedure: Equal amounts of DMSO were added to the protein solutions to avoid buffer-related changes in fluorol emission. Fluorescence changes were monitored with λex of 455 nm and a 495 nm cutoff emission filter. […] Kinetics were analyzed using the Igor Pro software (WaveMetrics, Oswego, OR, USA).

T224A CYP3A4 = biological target: T1, T224A CYP3A4 (Homo sapiens, UniProt P08684, T224A); assay: Equilibrium absorbance titrations of CYP3A4 with progesterone; format: binding
T1 construct: made in house

WT CYP3A4 = biological target: T2, WT CYP3A4 (Homo sapiens, UniProt P08684); assay: as above; format: binding
T2 construct: made in house
T2 sequence (P08684 with tags, fused parts or gaps): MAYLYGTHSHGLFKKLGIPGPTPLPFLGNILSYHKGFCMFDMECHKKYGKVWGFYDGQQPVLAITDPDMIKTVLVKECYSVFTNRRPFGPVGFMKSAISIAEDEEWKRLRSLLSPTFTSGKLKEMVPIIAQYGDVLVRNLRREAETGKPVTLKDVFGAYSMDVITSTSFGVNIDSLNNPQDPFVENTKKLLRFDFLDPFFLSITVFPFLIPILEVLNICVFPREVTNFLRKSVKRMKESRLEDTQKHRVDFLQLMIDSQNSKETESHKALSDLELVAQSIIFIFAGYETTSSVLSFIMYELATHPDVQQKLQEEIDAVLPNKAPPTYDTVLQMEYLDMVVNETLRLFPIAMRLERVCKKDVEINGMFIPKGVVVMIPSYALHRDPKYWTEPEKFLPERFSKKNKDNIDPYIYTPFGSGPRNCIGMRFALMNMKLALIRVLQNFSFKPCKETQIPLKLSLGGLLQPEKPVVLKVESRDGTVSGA

T1 sequence (P08684 with tags, fused parts or gaps T224A): as the sequence (P08684 with tags, fused parts or gaps) above, with T204A counted along it
Chain of CYP3A4 (P08684 whole entry): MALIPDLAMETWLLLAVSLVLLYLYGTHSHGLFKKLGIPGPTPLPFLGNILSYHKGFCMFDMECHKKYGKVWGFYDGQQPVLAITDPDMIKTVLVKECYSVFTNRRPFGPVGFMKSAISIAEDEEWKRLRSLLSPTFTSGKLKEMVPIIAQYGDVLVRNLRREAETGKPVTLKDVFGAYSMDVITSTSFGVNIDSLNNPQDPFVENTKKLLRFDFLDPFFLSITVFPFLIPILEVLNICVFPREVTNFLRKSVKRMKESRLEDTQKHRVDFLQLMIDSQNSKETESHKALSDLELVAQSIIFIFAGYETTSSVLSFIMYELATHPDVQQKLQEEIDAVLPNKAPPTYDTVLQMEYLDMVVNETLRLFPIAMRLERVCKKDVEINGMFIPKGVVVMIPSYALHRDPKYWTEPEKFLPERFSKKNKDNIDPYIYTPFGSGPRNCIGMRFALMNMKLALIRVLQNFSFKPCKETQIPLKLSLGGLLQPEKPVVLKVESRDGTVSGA

CC(=O)[C@H]1CC[C@H]2[C@@H]3CCC4=CC(=O)CC[C@]4(C)[C@H]3CC[C@]12C [progesterone]
Kd (CYP3A4; human): 45 µM
Kd (CYP3A4; our estimate, read-out: Kd, high-affinity site): 5 µM
Hill coefficient (nH) (T224A CYP3A4; 2 μM T224A CYP3A4): 1.37
S50 (concentration at half saturation) (T224A CYP3A4; 2 μM T224A CYP3A4, sigmoidal fitting): 25 ± 4 µM
Decrease in the high-spin content on elimination of Thr224 (T224A CYP3A4; PRG-bound, T224A vs WT): 9%
High-spin content in PRG-bound CYP3A4 (T224A CYP3A4; end of titration, T224A): 62%
S50 (concentration at half saturation) (WT CYP3A4; 2 μM WT CYP3A4, sigmoidal fitting): 32 ± 2 µM
High-spin content in PRG-bound CYP3A4 (WT CYP3A4; end of titration, WT): 71%
